Drawing on US20240109865A1, “INDAZOLE COMPOUNDS AS KINASE INHIBITORS” (TYRA BIOSCIENCES, INC., priority 2020, published 2024), this text covers Kd for 18 compounds.

Assay in all cases: Kinase assay, binding constants (Kd), kinase-tagged T7 phage, qPCR
For orientation: Quantitative PCR measures a nucleic acid by following its amplification.

In one test the target is FGFR1 (Homo sapiens (Human), UniProt P11362). The protocol: (§1) Kinase-tagged T7 phage strains were prepared in an E. coli host derived from the BL21 strain. E. coli were grown to log-phase and infected with T7 phage and incubated with shaking at 32° C. until lysis. The lysates were centrifuged and filtered to remove cell debris. Streptavidin-coated magnetic beads were treated with biotinylated small molecule ligands for 30 minutes at room temperature to generate affinity resins for kinase assays. The liganded beads were blocked with excess biotin and washed with blocking buffer SeaBlock (Pierce), […], 1 mM DTT to remove unbound ligand and to reduce non-specific binding.
FGFR1, sequence (P11362 22-822): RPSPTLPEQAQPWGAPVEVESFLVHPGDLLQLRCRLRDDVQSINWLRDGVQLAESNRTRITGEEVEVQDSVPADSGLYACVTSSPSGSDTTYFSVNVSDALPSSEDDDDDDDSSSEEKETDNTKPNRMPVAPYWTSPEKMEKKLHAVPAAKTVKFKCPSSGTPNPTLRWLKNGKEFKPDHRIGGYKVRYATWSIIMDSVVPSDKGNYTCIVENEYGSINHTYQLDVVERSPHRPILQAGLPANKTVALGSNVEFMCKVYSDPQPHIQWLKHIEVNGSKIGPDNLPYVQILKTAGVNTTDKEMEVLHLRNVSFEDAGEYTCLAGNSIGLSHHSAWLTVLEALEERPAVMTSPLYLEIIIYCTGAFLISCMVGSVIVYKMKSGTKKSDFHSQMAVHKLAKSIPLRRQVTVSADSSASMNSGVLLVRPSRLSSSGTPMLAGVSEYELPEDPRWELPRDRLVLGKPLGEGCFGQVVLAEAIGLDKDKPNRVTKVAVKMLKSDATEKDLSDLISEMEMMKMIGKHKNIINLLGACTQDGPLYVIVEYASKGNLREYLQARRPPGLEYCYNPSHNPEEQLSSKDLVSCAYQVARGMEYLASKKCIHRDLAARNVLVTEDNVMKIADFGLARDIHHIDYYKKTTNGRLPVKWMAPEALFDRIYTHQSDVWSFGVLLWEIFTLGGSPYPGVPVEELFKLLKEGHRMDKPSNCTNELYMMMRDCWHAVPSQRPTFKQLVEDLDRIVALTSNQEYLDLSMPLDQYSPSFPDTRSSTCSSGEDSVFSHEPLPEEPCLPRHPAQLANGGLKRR
(§2) Test compounds were prepared as 111λ stocks in 10000 DMS0. Kds were determined using an 11-point 3-fold compound dilution series with three DMSO control points. […] The compounds were then diluted directly into the assays such that the final concentration of DMSO was 0.9%. All reactions performed in polypropylene 384-well plate. Each was a final volume of 0.02 ml. […] The beads were then re-suspended in elution buffer (1×PBS, 0.05% Tween […] non-biotinylated affinity ligand) and incubated at room temperature with shaking for 30 minutes. The kinase concentration in the eluates was measured by qPCR.
(§3) Binding constants were calculated with a standard dose-response curve using the Hill equation: […]
(§4) The Hill Slope was set to −1. Curves were fitted using a non-linear least square fit with the Levenberg-Marquardt algorithm.

In the next test the target is FGFR2 (Homo sapiens (Human), UniProt P21802). The procedure:
as §1, §2, §3, §4

A further test deals with FGFR3 (Homo sapiens (Human), UniProt P22607). The protocol:
as §1, §2, §3, §4

Another test concerns the target FGFR3 (V555M) (Homo sapiens (Human), UniProt P22607, V555M). The conditions noted are these: V555M mutant. The protocol:
as §1, §2, §3, §4

The target of another test is FGFR4 (Homo sapiens (Human), UniProt P22455). The procedure: as §1, §2, §3, §4
FGFR4, sequence (P22455 22-802): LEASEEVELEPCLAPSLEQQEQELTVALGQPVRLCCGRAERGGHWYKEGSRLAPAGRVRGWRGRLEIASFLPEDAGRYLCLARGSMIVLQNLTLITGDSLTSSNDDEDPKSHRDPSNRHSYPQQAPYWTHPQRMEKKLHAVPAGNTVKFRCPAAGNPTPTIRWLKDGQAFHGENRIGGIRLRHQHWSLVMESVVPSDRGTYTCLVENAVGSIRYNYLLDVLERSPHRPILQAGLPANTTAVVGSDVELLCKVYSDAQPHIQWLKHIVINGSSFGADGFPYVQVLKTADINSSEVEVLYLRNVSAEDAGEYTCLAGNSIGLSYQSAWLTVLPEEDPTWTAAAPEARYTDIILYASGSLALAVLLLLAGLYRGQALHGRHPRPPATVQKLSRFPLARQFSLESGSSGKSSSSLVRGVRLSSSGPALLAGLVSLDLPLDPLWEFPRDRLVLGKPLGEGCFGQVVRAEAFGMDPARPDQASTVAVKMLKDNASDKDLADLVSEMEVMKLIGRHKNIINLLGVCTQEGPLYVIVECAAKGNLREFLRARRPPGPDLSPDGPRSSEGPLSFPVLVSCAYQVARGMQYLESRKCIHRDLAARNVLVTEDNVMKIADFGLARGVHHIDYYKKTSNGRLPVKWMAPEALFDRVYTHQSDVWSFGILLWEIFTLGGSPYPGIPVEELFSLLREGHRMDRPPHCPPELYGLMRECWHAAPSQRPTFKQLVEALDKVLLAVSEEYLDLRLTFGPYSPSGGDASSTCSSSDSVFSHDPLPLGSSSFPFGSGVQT

Some results are limits rather than exact numbers.

In general, Kd refers to the constant that tells how readily two partners part at equilibrium. Low readings indicate tighter binding, high ones weaker binding.

FGFR3 (V555M), sequence (P22607 23-806 V555M): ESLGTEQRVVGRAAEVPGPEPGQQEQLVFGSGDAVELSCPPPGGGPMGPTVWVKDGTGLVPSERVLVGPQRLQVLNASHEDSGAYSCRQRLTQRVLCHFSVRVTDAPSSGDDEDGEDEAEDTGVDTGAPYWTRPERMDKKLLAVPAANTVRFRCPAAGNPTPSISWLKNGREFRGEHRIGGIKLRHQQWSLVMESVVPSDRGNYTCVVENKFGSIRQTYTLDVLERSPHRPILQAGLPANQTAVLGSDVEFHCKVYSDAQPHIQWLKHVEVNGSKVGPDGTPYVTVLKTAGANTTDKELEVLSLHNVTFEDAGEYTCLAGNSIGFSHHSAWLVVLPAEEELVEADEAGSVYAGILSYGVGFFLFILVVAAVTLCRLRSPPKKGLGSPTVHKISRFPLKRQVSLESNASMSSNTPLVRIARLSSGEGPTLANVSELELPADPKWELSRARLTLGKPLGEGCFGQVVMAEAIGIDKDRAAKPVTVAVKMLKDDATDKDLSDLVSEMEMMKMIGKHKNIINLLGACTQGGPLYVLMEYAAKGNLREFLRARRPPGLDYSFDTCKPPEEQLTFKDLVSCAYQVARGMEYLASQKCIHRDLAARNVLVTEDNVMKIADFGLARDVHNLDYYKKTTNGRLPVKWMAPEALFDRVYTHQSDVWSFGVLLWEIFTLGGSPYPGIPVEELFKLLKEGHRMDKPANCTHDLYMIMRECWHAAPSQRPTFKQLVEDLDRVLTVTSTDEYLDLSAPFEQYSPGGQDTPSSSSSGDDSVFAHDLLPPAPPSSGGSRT
FGFR2, sequence (P21802 22-821): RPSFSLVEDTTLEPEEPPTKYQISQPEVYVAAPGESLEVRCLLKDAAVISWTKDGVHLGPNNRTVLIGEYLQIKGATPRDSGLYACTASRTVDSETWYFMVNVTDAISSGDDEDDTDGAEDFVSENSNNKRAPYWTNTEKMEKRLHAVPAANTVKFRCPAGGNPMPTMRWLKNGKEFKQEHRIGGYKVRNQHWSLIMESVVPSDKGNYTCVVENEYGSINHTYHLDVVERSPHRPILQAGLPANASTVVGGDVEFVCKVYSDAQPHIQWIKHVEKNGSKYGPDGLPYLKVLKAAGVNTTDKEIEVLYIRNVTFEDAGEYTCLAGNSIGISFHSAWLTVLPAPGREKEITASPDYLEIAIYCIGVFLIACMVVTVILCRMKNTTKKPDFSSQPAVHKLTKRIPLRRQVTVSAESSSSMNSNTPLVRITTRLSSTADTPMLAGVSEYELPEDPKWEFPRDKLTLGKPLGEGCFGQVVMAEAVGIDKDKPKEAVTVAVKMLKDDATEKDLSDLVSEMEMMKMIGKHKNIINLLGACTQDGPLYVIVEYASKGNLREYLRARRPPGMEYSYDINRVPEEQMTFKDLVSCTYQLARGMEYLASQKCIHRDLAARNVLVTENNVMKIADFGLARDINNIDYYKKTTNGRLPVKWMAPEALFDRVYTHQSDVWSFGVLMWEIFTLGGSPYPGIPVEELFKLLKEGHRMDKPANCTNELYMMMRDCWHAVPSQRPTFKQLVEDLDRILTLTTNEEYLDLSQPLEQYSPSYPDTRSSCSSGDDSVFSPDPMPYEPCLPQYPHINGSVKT
FGFR3, sequence (P22607 23-806): as the sequence (P22607 23-806 V555M) above, with M533V counted along it

Consider `Cc1cnnc(C)c1[C@@H](C)Oc1ccc2[nH]nc(-c3cnc(N4CC5(C4)CN(S(C)(=O)=O)C5)nc3)c2c1` [Example 156, 5-[(1R)-1-(3,5-dimethylpyridazin-4-yl)ethoxy]-3-[2-(2-methylsulfonyl-2,6-diazaspiro[3.3]heptan-6-yl)pyrimidin-5-yl]-1H-indazole], for which the Kd on FGFR1 lay in the range of 100 to 300 nM; at FGFR2 it was 20 to 100 nM; on FGFR3, 1 to 20 nM; at FGFR3 (V555M), 1 to 20 nM; at FGFR4, 1 to 20 nM.

With `C[C@@H](Oc1ccc2[nH]nc(-c3cnc(N4CC5(CCNC5)C4)nc3)c2c1)c1c(Cl)cncc1Cl` [Example 158, 3-[2-(2,7-diazaspiro[3.4]octan-2-yl)pyrimidin-5-yl]-5-[(1R)-1-(3,5-dichloro-4-pyridyl)ethoxy]-1H-indazole], the Kd on FGFR1 was 20 to 100 nM; at FGFR2, 20 to 100 nM; at FGFR3 it was 1 to 20 nM; at FGFR3 (V555M) it was 1 to 20 nM; at FGFR4, 1 to 20 nM.

With `C[C@@H](Oc1ccc2[nH]nc(-c3ccc(N4CC5(CCCNC5)C4)nc3)c2c1)c1c(Cl)cncc1Cl` [Example 161, 3-[6-(2,8-diazaspiro[3.5]nonan-2-yl)-3-pyridyl]-5-[(1R)-1-(3,5-dichloro-4-pyridyl)ethoxy]-1H-indazole], the Kd at FGFR1, on FGFR2, on FGFR3, on FGFR3 (V555M) and at FGFR4 was 1 to 20 nM in each case.

On to `C[C@@H](Oc1ccc2[nH]nc(-c3ccc(N4CC5(CCNC5)C4)nc3)c2c1)c1c(Cl)cncc1Cl` [Example 164, 3-[6-(2,7-diazaspiro[3.4]octan-2-yl)-3-pyridyl]-5-[(1R)-1-(3,5-dichloro-4-pyridyl)ethoxy]-1H-indazole], for which the Kd at FGFR1, at FGFR2, on FGFR3, on FGFR3 (V555M) and at FGFR4 was 1 to 20 nM throughout.

As for `C[C@@H](Oc1ccc2[nH]nc(-c3cnn(C4CCN(C5CCC5)CC4)c3)c2c1)c1cc(F)cc(F)c1` [Example 167, 3-[1-(1-cyclobutyl-4-piperidyl)pyrazol-4-yl]-5-[(1R)-1-(3,5-difluorophenyl)ethoxy]-1H-indazole], the Kd at FGFR1 was 20 to 100 nM; on FGFR2 it was 20 to 100 nM; on FGFR3, 20 to 100 nM; at FGFR3 (V555M), 1 to 20 nM; on FGFR4, more than 300 nM.

As for `C[C@@H](Oc1ccc2[nH]nc(-c3ccc(N4CC5(CNC5)C4)nc3)c2c1)c1cc(F)cc(F)c1` [Example 169, 3-[6-(2,6-diazaspiro[3.3]heptan-2-yl)-3-pyridyl]-5-[(1R)-1-(3,5-difluorophenyl)ethoxy]-1H-indazole], the dissociation constant Kd was in the range of 20 to 100 nM on FGFR1; 20 to 100 nM on FGFR2; 1 to 20 nM at FGFR3; 1 to 20 nM at FGFR3 (V555M); 20 to 100 nM at FGFR4.

For `C[C@@H](Oc1ccc2[nH]nc(-c3cnn(C4CCS(=O)(=O)CC4)c3)c2c1)c1cc(F)cc(F)c1` [Example 171, 4-[4-[5-[(1R)-1-(3,5-difluorophenyl)ethoxy]-1H-indazol-3-yl]pyrazol-1-yl]thiane 1,1-dioxide], the Kd on FGFR1 was 100 to 300 nM; on FGFR2, 20 to 100 nM; at FGFR3, 20 to 100 nM; at FGFR3 (V555M), 1 to 20 nM; on FGFR4 it was more than 300 nM.

In the case of `C[C@@H](Oc1ccc2[nH]nc(-c3ccc(N4CC5(C4)CN(S(C)(=O)=O)C5)nc3)c2c1)c1cc(F)cc(F)c1` [Example 172, 5-[(1R)-1-(3,5-difluorophenyl)ethoxy]-3-[6-(2-methylsulfonyl-2,6-diazaspiro[3.3]heptan-6-yl)-3-pyridyl]-1H-indazole], the Kd on FGFR1 fell in the range of 100 to 300 nM; at FGFR2, 20 to 100 nM; at FGFR3, 1 to 20 nM; at FGFR3 (V555M), 1 to 20 nM; on FGFR4 it was 20 to 100 nM.

For the compound `Cc1cnnc(C)c1[C@@H](C)Oc1ccc2[nH]nc(-c3ccc(N4CCN5CCC[C@H]5C4)nc3)c2c1` [Example 174, 3-[6-[(8aS)-3,4,6,7,8,8a-hexahydro-1H-pyrrolo[1,2-a]pyrazin-2-yl]-3-pyridyl]-5-[(1R)-1-(3,5-dimethylpyridazin-4-yl)ethoxy]-1H-indazole], the Kd on FGFR1, at FGFR2, on FGFR3, at FGFR3 (V555M) and at FGFR4 was 1 to 20 nM in each case.

Consider `Cc1cnnc(C)c1[C@@H](C)Oc1ccc2[nH]nc(-c3ccc(N4CCN5CCC[C@@H]5C4)nc3)c2c1` [Example 175, 3-[6-[(8aR)-3,4,6,7,8,8a-hexahydro-1H-pyrrolo[1,2-a]pyrazin-2-yl]-3-pyridyl]-5-[(1R)-1-(3,5-dimethylpyridazin-4-yl)ethoxy]-1H-indazole], for which the Kd at FGFR1, on FGFR2, on FGFR3, at FGFR3 (V555M) and on FGFR4 was 1 to 20 nM throughout.

Turning to `Cc1cnnc(C)c1[C@@H](C)Oc1ccc2[nH]nc(-c3ccc(N4CCN5C[C@H](O)C[C@H]5C4)nc3)c2c1` [Example 176, (7R,8aS)-2-[5-[5-[(1R)-1-(3,5-dimethylpyridazin-4-yl)ethoxy]-1H-indazol-3-yl]-2-pyridyl]-3,4,6,7,8,8a-hexahydro-1H-pyrrolo[1,2-a]pyrazin-7-ol], the Kd on FGFR1, on FGFR2, at FGFR3, on FGFR3 (V555M) and at FGFR4 was 1 to 20 nM each time.

For the compound `Cc1ncc(Cl)c([C@@H](C)Oc2ccc3[nH]nc(-c4ccc(N5CC6(CNC6)C5)nc4)c3c2)c1Cl` [Example 177, 3-[6-(2,6-diazaspiro[3.3]heptan-2-yl)-3-pyridyl]-5-[(1R)-1-(3,5-dichloro-2-methyl-4-pyridyl)ethoxy]-1H-indazole], the dissociation constant (Kd) was in the range of 1 to 20 nM on FGFR1; 20 to 100 nM at FGFR2; 1 to 20 nM on FGFR3; 1 to 20 nM at FGFR3 (V555M); 1 to 20 nM at FGFR4.

As for `C[C@@H](Oc1ccc2[nH]nc(-c3ccc(N4CCN5C[C@H](O)C[C@H]5C4)nc3)c2c1)c1c(Cl)cncc1Cl` [Example 178, (7R,8aS)-2-[5-[5-[(1R)-1-(3,5-dichloro-4-pyridyl)ethoxy]-1H-indazol-3-yl]-2-pyridyl]-3,4,6,7,8,8a-hexahydro-1H-pyrrolo[1,2-a]pyrazin-7-ol], the Kd at FGFR1, at FGFR2, on FGFR3, at FGFR3 (V555M) and at FGFR4 was 1 to 20 nM throughout.

In the case of `Cc1ncc(Cl)c([C@@H](C)Oc2ccc3[nH]nc(-c4cnc(N5CC6(CNC6)C5)nc4)c3c2)c1Cl` [Example 179, 3-[2-(2,6-diazaspiro[3.3]heptan-2-yl)pyrimidin-5-yl]-5-[(1R)-1-(3,5-dichloro-2-methyl-4-pyridyl)ethoxy]-1H-indazole], the dissociation constant Kd is 20 to 100 nM at FGFR1; 20 to 100 nM at FGFR2; 1 to 20 nM at FGFR3; 1 to 20 nM on FGFR3 (V555M); 1 to 20 nM at FGFR4.

For the compound `CCS(=O)(=O)N1CC2(CN(c3ccc(-c4n[nH]c5ccc(O[C@H](C)c6c(Cl)cnc(C)c6Cl)cc45)cn3)C2)C1` [Example 180, 5-[(1R)-1-(3,5-dichloro-2-methyl-4-pyridyl)ethoxy]-3-[6-(2-ethylsulfonyl-2,6-diazaspiro[3.3]heptan-6-yl)-3-pyridyl]-1H-indazole], the Kd lay within 20 to 100 nM on FGFR1; 20 to 100 nM on FGFR2; 1 to 20 nM at FGFR3; 1 to 20 nM on FGFR3 (V555M); 20 to 100 nM at FGFR4.

In the case of `CCS(=O)(=O)N1CC2(CN(c3ncc(-c4n[nH]c5ccc(O[C@H](C)c6c(Cl)cnc(C)c6Cl)cc45)cn3)C2)C1` [Example 181, 5-[(1R)-1-(3,5-dichloro-2-methyl-4-pyridyl)ethoxy]-3-[2-(2-ethylsulfonyl-2,6-diazaspiro[3.3]heptan-6-yl)pyrimidin-5-yl]-1H-indazole], the Kd at FGFR1 was 100 to 300 nM; at FGFR2 it was more than 300 nM; at FGFR3, 1 to 20 nM; at FGFR3 (V555M), 1 to 20 nM; on FGFR4 it was 1 to 20 nM.

With `CCOC(=O)N1CCCC2(C1)CN(c1ccc(-c3n[nH]c4ccc(O[C@H](C)c5c(C)cnnc5C)cc34)cn1)C2` [Example 182, ethyl 2-[5-[5-[(1R)-1-(3,5-dimethylpyridazin-4-yl)ethoxy]-1H-indazol-3-yl]-2-pyridyl]-2,8-diazaspiro[3.5]nonane-8-carboxylate], the Kd on FGFR1 fell in the range of 20 to 100 nM; on FGFR2 it was 1 to 20 nM; at FGFR3, 1 to 20 nM; at FGFR3 (V555M), 1 to 20 nM; on FGFR4, 1 to 20 nM.

`C[C@@H](Oc1ccc2[nH]nc(-c3ccc(N4CCN5CCC[C@H]5C4)nc3)c2c1)c1c(Cl)cncc1Cl` [Example 183, 3-[6-[(8aS)-3,4,6,7,8,8a-hexahydro-1H-pyrrolo[1,2-a]pyrazin-2-yl]-3-pyridyl]-5-[(1R)-1-(3,5-dichloro-4-pyridyl)ethoxy]-1H-indazole]: the Kd at FGFR1, at FGFR2, at FGFR3, at FGFR3 (V555M) and at FGFR4 was 1 to 20 nM in each case.
